Measured values reported in patent US4698431A, “Hydroxypyridonate chelating agents” (priority 1985, dated 1987).
Several values for one entry are separate records, joined by “and”; a condition that tells them apart may be missing. Equal entries are not always repeated. Entries after “also recorded” stand apart in the source; their conditions may differ.

Experiments:
[1] = Acute toxicity in mice, single i.p. injection; conditions: mouse, in vivo, ip, Table 3, 1000 (*) or 500 (**) μmole/kg, read-out: acute toxicity (asterisk), lethality in 7 days
Protocol: A test of acute toxicity was also carried out, as follows. Two mice were each given a single i.p. injection of 100, 500, or 1000 μmole/kg of ligand dissolved in 0.5 to 1.0 ml of saline at pH=7.5. Sparingly soluble ligands, dispersed by sonication, were given as finely divided suspensions. After 7 days observation, the mice were killed, selected tissues were removed and fixed for histopathological examination, and unusual findings at autopsy were recorded.
^a Single or double asterisks indicate acutely toxic (50% to 100%
lethality) in 7 days after a single i.p. injection of 1000 or 500
μmole/kg, respectively.

transferrin = assay: Removal of iron from transferrin; assay type: biochemical
Protocol: (§1) Removal of Iron From Transferrin: The effectiveness of 3HOPOCAM as a ferri ion chelator was evaluated in terms of its potential for removing iron from transferrin. In order to account for the effect of proton competitio in the ligand strength comparisons, the relative ironbinding abilities of the ligands were ranked by the pM value, defined as -log [Fe^+3 ] of pH 7.4 solution that is 10^-5 M in total ligand and 10^-6 M in total iron. The pM for 3HOPOCAM was determined (by binding competition experiments with EDTA) to be 21.7, about 4 to 14 units lower than the pM value for siderophores containing three bidentate catechol or hydroxamate groups. […] Ligands incorporating more than two "HOPO" groups should be effective in removing iron from transferrin at even lower concentrations.

[2] = Relative iron-binding ability (pM value) by binding competition with EDTA
Protocol: as §1

[3] = Promotion of excretion of ^238 Pu(IV) in mice; assay type: in vivo; conditions: for Pu / actinide removal, in words: mouse, in vivo
Protocol: The novel chelating agents of the present invention were tested for their effectiveness in promoting excretion of ^238 Pu(IV) in mice as follows. Groups of five mice each received an intravenous injection of […] of ^238 Pu(IV) in citrate buffer, 9250 Bq/kg body wt. One hour later 30 μmole/kg of ligand (120 μmole/kg of monomeric ligands) was injected intraperitoneally in 0.5 ml of saline. The mice were killed 24 h after the Pu injection, frozen, and dissected after partial thawing. The ^238 Pu in skeleton, tissues, and separated excreta was determined by counting of the ^234 U L xrays.
^c Ligand was administered (30 μmole/kg, i.p.) at 1 hr and mice
were killed at 24 hr after injection (i.v.) of ^238 Pu(IV) citrate.
Dosage of monomers, HOPO--CO2 H and HOPO--COMe2, was 120

[4] = Iron removal bioassay in iron-loaded (transfused) mice; assay type: in vivo
Protocol: DFHOPOCAM was tested for its effectiveness in removing iron from iron-loaded mice. The mice tested had undergone three transfusions over five days of heat-treated canine red blood cells. Both low i.p. doses (about 20 mg/kg) and high doses (about 200 mg/kg) were administered, in aqueous solution.
Changes in splenic, hepatic, fecal and urinary iron in transfused
male mice treated with potential iron chelators for several days

[5] = higher dose, about 200 mg/kg i.p.

O=C(NCCCN(CCCCN(CCCNC(=O)c1cccc(=O)n1O)C(=O)c1cccc(=O)n1O)C(=O)c1cccc(=O)n1O)c1cccc(=O)n1O [3,4,3-HOPOCAM]
mortality at 168 h [1]: 50 to 100%

O=C(NCCCCN(CCCNC(=O)c1cccc(=O)n1O)C(=O)c1cccc(=O)n1O)c1cccc(=O)n1O [3,4-HOPOCAM]
mortality at 168 h [1]: 50 to 100%

O=C(NCCCNC(=O)c1cccc(=O)n1O)c1cccc(=O)n1O [3-HOPOCAM]
concentration at which iron was removed from transferrin (transferrin): approximately mM concentrations
iron removed from transferrin (transferrin; 30 min., 1.6 mM solution): about 29%
pM value (-log [Fe^+3 ]) ([2]; pH 7.4, 10^-5 M total ligand, 10^-6 M total iron, competition with EDTA): 21.7

O=C(O)CN(CCN(CC(=O)O)CC(=O)O)CCN(CC(=O)O)CC(=O)O [CaNa3 --DTPA, reference compound]
^238 Pu Excreta (urine and feces, one value) ([3]; ligand 30 μmole/kg i.p. at 1 hr, killed 24 hr after Pu): 70% of injected ^238 Pu

CC(=O)N(O)CCCCCNC(=O)CCC(=O)N(O)CCCCCNC(=O)CCC(=O)N(O)CCCCCNC(=O)c1cccc(=O)n1O [DFHOPOCAM]
newly injected Pu excreted in 24 hr ([3]; 24 hr): 86%
Pu / actinide removal, in words [3]: extremely effective; also recorded: most effective removal of such ions
Pu / actinide removal, in words ([3]; listed as HOPOsubstituted desferrioxamine): most effective Pu removal agent
Number Survivors ([4]; 20 mg/kg i.p.): 10/10
Percent Iron Changes vs. Control, Feces ([4]; 20 mg/kg i.p.): +21%
Percent Iron Changes vs. Control, Liver ([4]; 20 mg/kg i.p.): -28%
Percent Iron Changes vs. Control, Spleen ([4]; 20 mg/kg i.p.): -11%
Percent Iron Changes vs. Control, Urine ([4]; 20 mg/kg i.p.): +39%
Potency vs. Standard ([4]; 20 mg/kg i.p.): 4.5
Toxic Signs ([4]; 20 mg/kg i.p.): none
Number Survivors ([4]; 200 mg/kg i.p.): 10/10
Percent Iron Changes vs. Control, Feces ([4]; 200 mg/kg i.p.): +4%
Percent Iron Changes vs. Control, Liver ([4]; 200 mg/kg i.p.): -59%
Percent Iron Changes vs. Control, Spleen ([4]; 200 mg/kg i.p.): -17%
Percent Iron Changes vs. Control, Urine ([4]; 200 mg/kg i.p.): +93%
Potency vs. Standard ([4]; 200 mg/kg i.p.): 0.8
damage to excretory pathways from excess metabolic iron ([4]; about 20 and about 200 mg/kg i.p., daily excreta, five-day recovery period): reversal of most of the damage to excretory pathways
source of iron ([4]; both low and high doses): predominantly the liver
Potency relative to Desferal ([4]; dose not given): about 4.5
behavior and major organs [4, 5]: not grossly affected
change in fecal iron content, in words [4, 5]: little change in iron content
change in urine volume [4, 5]: -6%
decrease in liver iron [4, 5]: 59%
depression of fecal output [4, 5]: 24%
fall in liver weight [4, 5]: 14%
fall in spleen iron content [4, 5]: 17%
increase in spleen weight [4, 5]: 25%
rise in urinary iron [4, 5]: 93%
decrease in water imbibition ([4]; higher dose, about 200 mg/kg i.p., compared with low dose): about the same order of magnitude as that seen for the low dose
major route of excretion ([4]; iron excretion): through the kidneys
behavior ([4]; low dose, about 20 mg/kg i.p.): not affected
change in organ (spleen) weight, in words ([4]; low dose, about 20 mg/kg i.p.): not accompanied by a significant change in organ weight
decline in hepatic (liver) weight ([4]; low dose, about 20 mg/kg i.p.): 8%
decline in splenic iron ([4]; low dose, about 20 mg/kg i.p.): 11%
decrease in hepatic iron ([4]; low dose, about 20 mg/kg i.p.): 28%
fall in fecal output ([4]; low dose, about 20 mg/kg i.p.): 8%
increase in excretion of iron via the feces ([4]; low dose, about 20 mg/kg i.p.): 21%
increase in spleen weight ([4]; low dose, about 20 mg/kg i.p.): 4%
increase in urinary iron ([4]; low dose, about 20 mg/kg i.p.): 39%
necropsy: size or color of major organs ([4]; low dose, about 20 mg/kg i.p.): failed to reveal any changes in the size or color of major organs
stimulation of urine production ([4]; low dose, about 20 mg/kg i.p.): 24%
relative potency (highest fraction of iron excreted), ranking ([4]; mouse, in vivo): greatest
toxicity to the kidneys, ranking ([4]; of a number of compounds tested): least toxic to the kidneys

CC(=O)N(O)CCCCCNC(=O)CCC(=O)N(O)CCCCCNC(=O)CCC(=O)N(O)CCCCCN [Desferrioxamine, reference compound]
Number Survivors ([4]; 250 mg/kg i.p.): 240/240 and 150/150
Toxic Signs ([4]; 250 mg/kg i.p.): none

O=C(NCc1cc(CNC(=O)c2cccc(=O)n2O)cc(CNC(=O)c2cccc(=O)n2O)c1)c1cccc(=O)n1O [HOPO--MECAM]
mortality at 168 h [1]: 50 to 100%

transferrin: transferrin, iron source in the iron removal test
pM value (-log [Fe^+3 ]) of transferrin ([2]; pH 7.4, assuming [HCO3^- ]=0.024M): about 23.6
